Source: patent publication US20250136556A1, “NOVEL MODULATORS OF THE ARYL HYDROCARBON RECEPTOR AND METHODS OF USE THEREOF” (Allianthera (Suzhou) Biopharmaceutical Co., Ltd., priority 2021, published 2025)
pEC50, pIC50: −log10 of the molar value. Like-named read-outs stand apart in the source and are kept apart here.

Key:
[1] = molecular target: T1, Human Aryl Hydrocarbon Receptor (AHR) (Homo sapiens, UniProt P35869); assay: AHR agonist reporter assay in human cell line (INDIGO luciferase reporter); format: cell-based; conditions: reporter cells; for pEC50: 24 hours incubation; for AHR % activation to Tapinarof at 1 μM: 24 hours, value in brackets;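 for all read-outs here: firefly luciferase luminescence read on a plate reader, values normalized against positive and negative controls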
T1 construct: purchased INDIGO Bioscience IB06001-32; host or cells: AHR Reporter Cell (proprietary kit cells)
T1 sequence (P35869 11-848): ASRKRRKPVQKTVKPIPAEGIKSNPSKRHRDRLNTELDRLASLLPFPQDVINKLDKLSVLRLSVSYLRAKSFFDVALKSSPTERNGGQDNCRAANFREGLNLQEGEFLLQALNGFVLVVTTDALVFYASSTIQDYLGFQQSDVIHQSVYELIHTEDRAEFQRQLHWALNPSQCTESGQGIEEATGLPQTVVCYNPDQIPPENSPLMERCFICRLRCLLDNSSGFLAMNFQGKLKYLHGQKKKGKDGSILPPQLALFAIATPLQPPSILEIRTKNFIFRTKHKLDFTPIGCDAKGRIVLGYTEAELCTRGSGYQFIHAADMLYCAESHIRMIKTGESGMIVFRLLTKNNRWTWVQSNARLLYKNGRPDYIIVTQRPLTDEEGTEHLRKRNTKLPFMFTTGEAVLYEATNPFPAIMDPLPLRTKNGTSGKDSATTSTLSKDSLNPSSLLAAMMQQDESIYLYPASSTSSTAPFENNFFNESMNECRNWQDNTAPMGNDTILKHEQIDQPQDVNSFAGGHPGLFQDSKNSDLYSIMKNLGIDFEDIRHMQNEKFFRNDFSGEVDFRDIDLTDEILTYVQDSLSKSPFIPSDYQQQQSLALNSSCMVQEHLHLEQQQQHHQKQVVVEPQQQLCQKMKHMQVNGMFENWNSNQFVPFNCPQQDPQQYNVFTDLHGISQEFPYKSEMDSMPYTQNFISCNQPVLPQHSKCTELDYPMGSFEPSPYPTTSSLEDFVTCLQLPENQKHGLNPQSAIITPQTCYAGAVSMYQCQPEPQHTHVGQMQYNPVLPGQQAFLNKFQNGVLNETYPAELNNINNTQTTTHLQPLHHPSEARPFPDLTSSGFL

[2] = system: Human Nuclear Factor (erythroid-derived2)-like 2 (Nrf2); assay: Nrf2 transcription factor activity reporter assay in human cell line (INDIGO luciferase reporter); format: cell-based; conditions: reporter cells; for pEC50: 24 hours incubation; for Nrf2 % activation to Tapinarof at 9 μM: 24 hours, value in brackets
Description: The Nrf2 reporter assay was performed following the protocol of the Human Nuclear Factor (erythroid-derived2)-like 2 (Nrf2) Reporter Assay System (INDIGO Bioscience, #IB10001). Nrf2 Reporter Cell was thawed and pre-incubated in Cell Recovery Medium (CRM) for 6 hours. The media was then removed and the cells were incubated with Compound Screening Medium (CSM) in the absence (negative control) or presence of increasing concentrations of test compounds (typical dilution: 128 pM, 640 pM, 3.2 nM, 16 nM, 80 nM, 400 nM, […] in duplicates) for 24 hours. For positive control, cells activated with CDDO or Nrf2 agonists described in literature. Following 24 hours incubation, the media was removed and Luciferase Detection Reagent (LDR) added. The firefly luciferase activity was quantified using a plate reader. Results were normalized by positive and negative controls.

[3] = system: AHR-regulated gene CYP1A1; assay: AHR-regulated CYP1A1 expression in human monocytic U937 cell line (qPCR); conditions: U937 cells, 16 hours, CYP1A1 relative to GAPDH
Description: To evaluate the AHR agonist activity of the test compounds, quantitative PCR analysis was used to determine expression level of the AHR-regulated gene CYP1A1 in a human monocytic U937 cell line. U937 cells were seeded at a concentration of 5×10^5 cells/well in 200 μL of growth medium in 96-well cell culture microplates. CYP1A1 expression was induced with AHR agonists described in literature as a positive control or the test compounds for 16 hours. […] Unstimulated cells were used as the negative control. Taqman probes for human CYP1A1 (Hs01054797_g1) and human GAPDH (Hs02786624_g1) were used to analyze fold expression of CYP1A1 of GAPDH.

[4] = system: IL-6 gene expression in human primary M1 macrophage cells; assay: AHR-regulated IL-6 inhibition in human primary M1 macrophage (qPCR); format: cell-based; conditions: LPS/IFN-gamma/GM-CSF, 24 hours; for pIC50: read-out: M1 assay IL6 -IC50
Description: Human M1 macrophage was differentiated from PBMC. Briefly, at day 1, monocytes were isolated from human PBMC using EasySe Human Monocyte Enrichment Kit without CD16 Depletion (Stemcell, 19058). The isolated monocytes were seeded at 3×10^7 cells in 15 cm dish using 30 ml medium containing 50 ng/ml GM-CSF (R&D, 215-GM-050/CF). At day 5, 30 ml fresh medium containing 50 ng/ml GM-CSF was added. At day 8, 1.5×10^5 cells/well were re-seeded into 24 wells plate, and 500 ul medium containing 10 ng/ml LPS (Sigma, L7770), 20 ng/ml IFN-gamma (PeproTech, 300-02), 50 ng/ml GM-CSF and the test compounds was added. […] The IL-6 expression was inhibited with AHR agonists described in literature as the positive inhibition control, alternatively the un-stimulated cells were used as the negative inhibition control. […] The primers for human GAPDH (F: […]; R: […]) and human IL-6 (F: […]; R: […]) were used to analyze fold expression of IL-6 of GAPDH by quantitative PCR.

[5] = first line of cell, read-out: AHR reEC50
[6] = second line of cell, read-out: AHR abEC50
[7] = first line of cell, read-out: Nrf2 reEC50
[8] = second line of cell, read-out: Nrf2 EC50, second line of cell (head does not name it)

SMILES: CC(C)c1ncc(-c2ccc3ccccc3n2)cc1O [Compound 98]
- pEC50 [1, 5]: 3.75
- pEC50 [1, 6]: 6.39
- AHR % activation to Tapinarof at 1 μM [1]: 71.2%
- pEC50 [2, 7]: 7.40
- pEC50 [2, 8]: 6.86
- Nrf2 % activation to Tapinarof at 9 μM [2]: 83.6%
- CYP1A1 (% activation to Tapinarof at 1 μM) [3]: 83.6%

SMILES: CC(C)c1ncc(-c2nc3ccccc3o2)cc1N [Compound 121, 5-(1,3-benzoxazol-2-yl)-2-isopropylpyridin-3-amine]
- pEC50 [1, 6]: < 7.00
- pEC50 [2, 8]: 6.92

SMILES: CC(C)c1c(O)cc(/C=C/c2ccccc2)cc1O [Tapinarof, reference compound]
- AHR % activation to Tapinarof at 1 μM [1]: 100%
- pEC50 [2, 7]: 7.12 to 7.26
- CYP1A1 (% activation to Tapinarof at 1 μM) [3]: 100%

SMILES: CC(C)c1ncc(/C=C/c2cccc(F)c2)cc1O [Compound 113, (E)-5-(3-fluorostyryl)-2-isopropylpyridin-3-ol]
- pEC50 [1, 6]: 6.53
- M1 assay IL6 -max % inhibition (% to no treatment) [4]: 67.80%
- pIC50 [4]: 6.92

SMILES: COc1cc(/C=C/c2ccccc2)cc(O)c1C(C)(C)O [Compound 111]
- pEC50 [1, 6]: 7.41
- pEC50 [2, 8]: 7.24

SMILES: CC(C)c1ncc(-c2cc3ccccc3cn2)cc1O [Compound 97]
- pEC50 [1, 5]: 5.79
- pEC50 [1, 6]: 6.24
- AHR % activation to Tapinarof at 1 μM [1]: 62.6%
- pEC50 [2, 7]: 6.60
- pEC50 [2, 8]: 6.30
- Nrf2 % activation to Tapinarof at 9 μM [2]: 67.2%
- CYP1A1 (% activation to Tapinarof at 1 μM) [3]: 78.9%

SMILES: CCCc1c(O)cc(/C=C/c2ccccc2)cc1F [Compound 125, 3-fluoro-5-[(E)-2-phenylethenyl]-2-propylphenol]
- pEC50 [1, 6]: 7.94
- M1 assay IL6 -max % inhibition (% to no treatment) [4]: 91.70%
- pIC50 [4]: 8.87

SMILES: CC(C)Oc1cc(/C=C/c2ccccc2)cc(O)n1 [Compound 106, (E)-6-isopropoxy-4-styrylpyridin-2-ol]
- pEC50 [1, 6]: 6.46
- pEC50 [2, 8]: < 6.40

SMILES: CC(C)c1c(O)cc(-c2ccc3cnccc3c2F)cc1F [Compound 139]
- M1 assay IL6 -max % inhibition (% to no treatment) [4]: 85.80%
- pIC50 [4]: 8.30

SMILES: CC(C)c1ncc(-c2ccc3ccccc3n2)cc1N [Compound 119, 2-isopropyl-5-(quinolin-2-yl)pyridin-3-amine]
- pEC50 [1, 5]: 7.18
- AHR % activation to Tapinarof at 1 μM [1]: 16.4%
- pEC50 [2, 7]: 6.90
- pEC50 [2, 8]: 6.89
- Nrf2 % activation to Tapinarof at 9 μM [2]: 97.8%
- CYP1A1 (% activation to Tapinarof at 1 μM) [3]: 0.4%

SMILES: Cc1ccnc2cc(-c3cc(O)c(C(C)C)c(F)c3)ccc12 [Compound 147]
- M1 assay IL6 -max % inhibition (% to no treatment) [4]: 91.60%
- pIC50 [4]: 10.52

SMILES: CC(C)c1c(O)cc(-c2cc(F)c3cnc(N)nc3c2)cc1O [Compound 39]
- pEC50 [1, 6]: 8.45
- M1 assay IL6 -max % inhibition (% to no treatment) [4]: 89.60%
- pIC50 [4]: 9.70

SMILES: COc1cc(/C=C/c2ccccc2)cc(OC)c1C(C)=O [Compound 107, 1-{2,6-dimethoxy-4-[(E)-2-phenylethenyl]phenyl} ethenone]
- pEC50 [1, 6]: < 7.00
- pEC50 [2, 8]: < 7.00

SMILES: COc1cc(-c2nc3ccccc3o2)cc(O)c1C(C)C [Compound 122, 5-(benzo[d]oxazol-2-yl)-2-isopropyl-3-methoxyphenol]
- pEC50 [1, 5]: 6.59
- pEC50 [1, 6]: 6.40
- AHR % activation to Tapinarof at 1 μM [1]: 64.4%
- pEC50 [2, 7]: 5.58
- Nrf2 % activation to Tapinarof at 9 μM [2]: 25.7%
- CYP1A1 (% activation to Tapinarof at 1 μM) [3]: 39.3%

SMILES: CC(C)c1ncc(/C=C/c2ccc(F)cc2)cc1O [Compound 114, 5-[(E)-2-(4-fluorophenyl)ethenyl]-2-isopropylpyridin-3-ol]
- pEC50 [1, 5]: 6.84
- pEC50 [1, 6]: 6.92
- AHR % activation to Tapinarof at 1 μM [1]: 88.5%
- pEC50 [2, 8]: 7.72

SMILES: CC(C)c1c(O)cc(-c2cc3ccccc3cn2)cc1O [Compound 46]
- pEC50 [1, 5]: 7.14
- pEC50 [1, 6]: 7.41
- AHR % activation to Tapinarof at 1 μM [1]: 95.8%
- pEC50 [2, 7]: 7.79
- pEC50 [2, 8]: 6.78
- Nrf2 % activation to Tapinarof at 9 μM [2]: 69.3%
- CYP1A1 (% activation to Tapinarof at 1 μM) [3]: 95.3%
